We go through 46 compounds from patent US20240336622A1 (The Board of Regents of The University of Texas System, priority 2021, published 2024).

Structures are written as SMILES.

For the first assay, the system named is UWB1 cells. Nature of the assay: cells. Conditions: read-out: IC50 (μM) UWB1 cells.
By IC50 is commonly meant the concentration needed to halve the response being measured. In the case of `COC(=O)C[C@H]1[C@]2(C)C3=C(C)[C@@H](c4ccc(O[Si](C)(C)C(C)(C)C)cc4)C[C@H]3O[C@@H]2[C@@H]2OC(=O)[C@]3(C)C=CC(=O)[C@@]1(C)[C@@H]23` (stereo in doubt) [S-120], the IC50 worked out at 0.165 µM.

In the case of `C=C1[C@H](O[Si](C)(C)C)[C@H](O[Si](C)(C)C)[C@@H]2[C@](C)(C(=O)C=C[C@@]2(C)C(=O)OC)[C@H]1CC(=O)OC` [S-16-a], the IC50 is > 10 µM.

As to `C=C1[C@H](O[C@H]2C[C@@H](c3ccoc3)C(C)=C2I)[C@@H]2OC(=O)[C@]3(C)C=CC(=O)[C@@](C)([C@@H]23)[C@H]1CC(=O)OC` [S-27], the 50% inhibitory concentration (IC50) amounted to 0.415 µM.

In the case of `CC[Si](CC)(CC)O[C@H]1C(=O)[C@H](CC(=O)OC)[C@@]2(C)C=CC(=O)[C@@]3(C)C(=O)O[C@@H]1[C@@H]32` [S-38], the concentration for half-maximal inhibition (IC50) was > 10 µM.

As for `COC(=O)C[C@H]1[C@@H]2CC3=C(C)CC[C@@H]3O[C@@H]2[C@@H]2OC(=O)[C@]3(C)C=CC(=O)[C@@]1(C)[C@@H]23` [S-98], the IC50 turned out to be 0.83 µM.

As for `COC(=O)C[C@H]1[C@]2(C)C3=C(C)[C@H](c4cccc(O[Si](C)(C)C(C)(C)C)c4)C[C@H]3O[C@@H]2[C@@H]2OC(=O)[C@]3(C)C=CC(=O)[C@@]1(C)[C@@H]23` [S-112], the 50% inhibitory concentration (IC50) was found to be 0.219 µM.

Regarding `COC(=O)C[C@H]1[C@@H]2CC3=C(C)[C@H](c4cccc(O[Si](C)(C)C(C)(C)C)c4)C[C@@H]3O[C@@H]2[C@@H]2OC(=O)[C@]3(C)C=CC(=O)[C@@]1(C)[C@@H]23` [S-113], the IC50 is 0.216 µM.

Staying with this assay, now noted: read-out: IC50 (μM) UWB1 cells, UWB1 cell viability.
Consider `C=C1[C@H](O)[C@H](O)[C@@H]2[C@](C)(C(=O)C=C[C@@]2(C)C(=O)OC)[C@H]1CC(=O)OC` [S-16-b], for which the IC50 is > 10 µM.

Take `C=C1[C@H](O)[C@@H]2OC(=O)[C@]3(C)C=CC(=O)[C@@](C)([C@@H]23)[C@H]1CC(=O)OC` [S-16]: the concentration for half-maximal inhibition (IC50) is > 10 µM.

Consider `C=C1[C@H](O[C@H]2C=C(C)[C@H](c3ccoc3)C2)[C@@H]2OC(=O)[C@]3(C)C=CC(=O)[C@@](C)([C@@H]23)[C@H]1CC(=O)OC` [S-26-1], for which the IC50 was determined as 0.265 µM.

For `COC(=O)C[C@H]1[C@]2(C)C3=C(C)[C@H](c4ccoc4Br)C[C@H]3O[C@@H]2[C@@H]2OC(=O)[C@]3(C)C=CC(=O)[C@@]1(C)[C@@H]23` [S-41], the 50% inhibitory concentration (IC50) came out at 0.465 µM.

Regarding `COC(=O)C[C@H]1[C@]2(C)C3=C(C)[C@H](c4ccoc4-c4cccc5c4ccn5C)C[C@H]3O[C@@H]2[C@@H]2OC(=O)[C@]3(C)C=CC(=O)[C@@]1(C)[C@@H]23` [S-42], the IC50 is 0.144 µM.

On to `COC(=O)C[C@H]1[C@]2(C)C3=C(C)[C@H](c4ccoc4-c4ccc(OC)nc4)C[C@H]3O[C@@H]2[C@@H]2OC(=O)[C@]3(C)C=CC(=O)[C@@]1(C)[C@@H]23` [S-43], for which the 50% inhibitory concentration (IC50) was 0.208 µM.

Regarding `COC(=O)C[C@H]1[C@]2(C)C3=C(C)[C@H](c4ccoc4-c4ccc5c(c4)OCO5)C[C@H]3O[C@@H]2[C@@H]2OC(=O)[C@]3(C)C=CC(=O)[C@@]1(C)[C@@H]23` [S-44], the 50% inhibitory concentration (IC50) was found to be 0.383 µM.

With `COC(=O)C[C@H]1[C@]2(C)C3=C(C)[C@H](c4ccoc4-c4ccc(C=O)cc4)C[C@H]3O[C@@H]2[C@@H]2OC(=O)[C@]3(C)C=CC(=O)[C@@]1(C)[C@@H]23` [S-45], the IC50 was determined as 0.251 µM.

Consider `COC(=O)C[C@H]1[C@]2(C)C3=C(C)[C@H](c4ccoc4-c4ccoc4)C[C@H]3O[C@@H]2[C@@H]2OC(=O)[C@]3(C)C=CC(=O)[C@@]1(C)[C@@H]23` [S-47], for which the concentration for half-maximal inhibition (IC50) worked out at 0.296 µM.

For `COC(=O)C[C@H]1[C@]2(C)C3=C(C)[C@H](c4ccoc4-c4ccc(OC)cc4C)C[C@H]3O[C@@H]2[C@@H]2OC(=O)[C@]3(C)C=CC(=O)[C@@]1(C)[C@@H]23` [S-48], the IC50 is 0.212 µM.

For `COC(=O)C[C@H]1[C@]2(C)C3=C(C)[C@H](c4ccoc4-c4ccc([N+](=O)[O-])cc4)C[C@H]3O[C@@H]2[C@@H]2OC(=O)[C@]3(C)C=CC(=O)[C@@]1(C)[C@@H]23` [S-49], the IC50 worked out at 0.194 µM.

As for `COC(=O)C[C@H]1[C@]2(C)C3=C(C)[C@H](C4=CC(=O)OC4OC(C)=O)C[C@H]3O[C@@H]2[C@@H]2OC(=O)[C@]3(C)C=CC(=O)[C@@]1(C)[C@@H]23` (stereo partly shown) [S-50], the half-inhibitory concentration (IC50) came to 1.04 µM.

On to `COC(=O)C[C@H]1[C@]2(C)C3=C(C)[C@H](c4ccoc4-c4ccc(C(=O)NC(C)(C)C)cc4)C[C@H]3O[C@@H]2[C@@H]2OC(=O)[C@]3(C)C=CC(=O)[C@@]1(C)[C@@H]23` [S-52], for which the IC50 worked out at 0.199 µM.

Regarding `CCC(C)NC(=O)c1ccc(-c2occc2[C@@H]2C[C@H]3O[C@@H]4[C@@H]5OC(=O)[C@]6(C)C=CC(=O)[C@](C)([C@@H](CC(=O)OC)[C@]4(C)C3=C2C)[C@@H]56)cc1` (stereo partly shown) [S-53], the IC50 was determined as 0.17 µM.

Regarding `C=C1[C@H](O[C@H]2C=C(C)[C@H](c3ccoc3)C2)[C@@H]2OC(=O)[C@]3(C)C=CC(=O)[C@@](C)([C@@H]23)[C@H]1CC(=O)OC` [S-54], the IC50 was 0.265 µM.

Consider `COC(=O)C[C@H]1[C@]2(C)C3=C(C)[C@H](c4ccoc4)C[C@H]3O[C@@H]2[C@@H]2OC(=O)[C@]3(C)C=C[C@@H](O)[C@@]1(C)[C@@H]23` [S-55], for which the IC50 was > 10 µM.

As for `COC(=O)C[C@H]1[C@]2(C)C3=C(C)[C@H](c4ccoc4-c4ccccc4OC)C[C@H]3O[C@@H]2[C@H](O)[C@H]2C(C)=CCC(=O)[C@]12C` [S-56], the IC50 is > 10 µM.

Regarding `COC(=O)C[C@H]1[C@@H]2CC3=C(C)[C@H](c4ccoc4)C[C@@H]3O[C@@H]2[C@@H]2OC(=O)[C@]3(C)C=CC(=O)[C@@]1(C)[C@@H]23` [S-57], the IC50 is 0.591 µM.

As to `COC(=O)C[C@H]1[C@]2(C)C3=C(C)[C@H](c4ccoc4-c4ccc(C(=O)O)cc4)C[C@H]3O[C@@H]2[C@@H]2OC(=O)[C@]3(C)C=CC(=O)[C@@]1(C)[C@@H]23` [S-58], the IC50 is 1.79 µM.

With `COC(=O)C[C@H]1[C@]2(C)C3=C(C)[C@H](c4ccoc4-c4ccc(C(=O)OC)cc4)C[C@H]3O[C@@H]2[C@@H]2OC(=O)[C@]3(C)C=CC(=O)[C@@]1(C)[C@@H]23` [S-59], the IC50 worked out at 0.203 µM.

For the compound `COC(=O)C[C@H]1[C@]2(C)C3=C(C)[C@H](c4ccoc4)C[C@H]3O[C@@H]2[C@@H]2OC(=O)[C@]3(C)CCC(=O)[C@@]1(C)[C@@H]23` [S-60, 2,3-dihydronimbolide], the IC50 was > 10 µM.

With `COC(=O)C[C@H]1[C@]2(C)C3=C(C)[C@H](c4ccoc4)C[C@H]3O[C@@H]2[C@H](O)[C@H]2C(C)=CCC(=O)[C@]12C` [S-61, 6-deacetylnimbinene], the concentration for half-maximal inhibition (IC50) is > 10 µM.

`COC(=O)C[C@H]1[C@]2(C)C3=C(C)[C@H](c4ccoc4)C[C@H]3O[C@@H]2[C@H](OC(C)=O)[C@H]2C(C)=CCC(=O)[C@]12C` [S-62, nimbinene]: the IC50 was > 10 µM.

In the case of `COC(=O)C[C@H]1[C@]2(C)C3=C(C)[C@H](c4ccoc4)C[C@H]3O[C@@H]2[C@H](O)[C@@H]2[C@]1(C)C(=O)C=C[C@@]2(C)C(=O)OC` [S-63, 6-deacetylnimbin], the half-maximal inhibitory concentration (IC50) is > 10 µM.

As for `COC(=O)C[C@H]1[C@]2(C)C3=C(C)[C@H](c4ccoc4)C[C@H]3O[C@@H]2[C@H](OC(C)=O)[C@@H]2[C@]1(C)C(=O)C=C[C@@]2(C)C(=O)OC` [S-64, nimbin], the IC50 is > 10 µM.

Turning to `COC(=O)C[C@@H]1[C@@]2(C)C(=O)C=C[C@@]3(C)C(=O)O[C@@H]([C@H]4O[C@H]5CC(c6ccoc6)=C(C)[C@]56C[C@@]416)[C@H]23` [S-65], the half-inhibitory concentration (IC50) is > 10 µM.

With `COC(=O)C[C@H]1[C@]2(C)C3=C(C)CC[C@H]3O[C@@H]2[C@@H]2OC(=O)[C@]3(C)C=CC(=O)[C@@]1(C)[C@@H]23` [S-97], the IC50 is 1.45 µM.

As to `COC(=O)C[C@H]1[C@@H]2CC3=C(C)[C@@H](c4ccoc4)C[C@@H]3O[C@@H]2[C@@H]2OC(=O)[C@]3(C)C=CC(=O)[C@@]1(C)[C@@H]23` [S-99], the IC50 came out at 0.88 µM.

With `COC(=O)C[C@H]1[C@]2(C)C3=C(C)[C@H](c4ccccc4)C[C@H]3O[C@@H]2[C@@H]2OC(=O)[C@]3(C)C=CC(=O)[C@@]1(C)[C@@H]23` [S-101], the IC50 came to 0.3 µM.

`COC(=O)C[C@H]1[C@@H]2CC3=C(C)[C@H](c4ccccc4)C[C@@H]3O[C@@H]2[C@@H]2OC(=O)[C@]3(C)C=CC(=O)[C@@]1(C)[C@@H]23` [S-102]: the IC50 worked out at 0.17 µM.

Regarding `COC(=O)C[C@H]1[C@@H]2CC3=C(C)[C@@H](c4ccccc4)C[C@@H]3O[C@@H]2[C@@H]2OC(=O)[C@]3(C)C=CC(=O)[C@@]1(C)[C@@H]23` [S-103], the concentration for half-maximal inhibition (IC50) worked out at 0.16 µM.

As to `COC(=O)C[C@H]1[C@]2(C)C3=C(C)[C@H](C4CCCCC4)C[C@H]3O[C@@H]2[C@@H]2OC(=O)[C@]3(C)C=CC(=O)[C@@]1(C)[C@@H]23` [S-104], the IC50 was determined as 0.21 µM.

In the case of `COC(=O)C[C@H]1[C@@H]2CC3=C(C)[C@H](C4CCCCC4)C[C@@H]3O[C@@H]2[C@@H]2OC(=O)[C@]3(C)C=CC(=O)[C@@]1(C)[C@@H]23` [S-105], the IC50 turned out to be 0.2 µM.

For the compound `COC(=O)C[C@H]1[C@@H]2CC3=C(C)[C@@H](C4CCCCC4)C[C@@H]3O[C@@H]2[C@@H]2OC(=O)[C@]3(C)C=CC(=O)[C@@]1(C)[C@@H]23` [S-106], the half-inhibitory concentration (IC50) stood at 0.16 µM.

Consider `COC(=O)C[C@H]1[C@]2(C)C3=C(C)[C@H](c4ccc(OC)cc4)C[C@H]3O[C@@H]2[C@@H]2OC(=O)[C@]3(C)C=CC(=O)[C@@]1(C)[C@@H]23` [S-107], for which the concentration for half-maximal inhibition (IC50) came to 0.27 µM.

Regarding `COC(=O)C[C@H]1[C@@H]2CC3=C(C)[C@H](c4ccc(OC)cc4)C[C@@H]3O[C@@H]2[C@@H]2OC(=O)[C@]3(C)C=CC(=O)[C@@]1(C)[C@@H]23` [S-108], the IC50 was 0.11 µM.

As for `COC(=O)C[C@H]1[C@@H]2CC3=C(C)[C@@H](c4ccc(OC)cc4)C[C@@H]3O[C@@H]2[C@@H]2OC(=O)[C@]3(C)C=CC(=O)[C@@]1(C)[C@@H]23` [S-109], the half-inhibitory concentration (IC50) was 0.17 µM.

For the compound `C=C1[C@H](O[C@H]2CCC(C(C)C)=C2I)[C@@H]2OC(=O)[C@]3(C)C=CC(=O)[C@@](C)([C@@H]23)[C@H]1CC(=O)OC` [S-111], the IC50 came to 0.255 µM.

Take `C#CCOC(=O)c1ccc(-c2occc2[C@@H]2C[C@H]3O[C@@H]4[C@@H]5OC(=O)[C@]6(C)C=CC(=O)[C@](C)([C@@H](CC(=O)OC)[C@]4(C)C3=C2C)[C@@H]56)cc1` [S-112a]: the IC50 stood at 0.198 µM.
